# Columns and labels:
# Type in all cases: in vivo
# Settings in all cases: foliar, compared to untreated control leaf disks, read-out: disease control
# [1] = system: Blumeria graminis f. sp. tritici (Erysiphe graminis f. sp. tritici); experiment: Blumeria graminis f. sp. tritici / wheat / leaf disc preventative (powdery mildew on wheat)
# Experimental: Blumeria graminis f. sp. tritici (Erysiphe graminis f. sp. tritici)/Wheat/Leaf Disc Preventative (Powdery Mildew on Wheat)
# Wheat leaf segments cv. Kanzler were placed on agar in a multiwell plate (24-well format) and sprayed with the formulated test compound diluted in water. The leaf disks were inoculated by shaking powdery mildew infected plants above the test plates 1 day after application. The inoculated leaf disks were incubated at 20° C. and 60% rh under a light regime of 24 h darkness followed by 12 h light/12 h darkness in a climate chamber and the activity of a compound was assessed as percent disease control compared to untreated when an appropriate level of disease damage appears on untreated check leaf segments (6-8 days after application).
# The following compounds gave at 200 ppm give at least 50% disease control in this test when compared to untreated control leaf disks under the same conditions, which show extensive disease development: […]
# [2] = system: Puccinia recondita f. sp. tritici; experiment: Puccinia recondita f. sp. tritici / wheat / leaf disc preventative (brown rust)
# Text: Puccinia recondita f. sp. tritici/Wheat/Leaf Disc Preventative (Brown Rust) Wheat leaf segments cv. Kanzler were placed on agar in multiwell plates (24-well format) and sprayed with the formulated test compound diluted in water. The leaf disks were inoculated with a spore suspension of the fungus 1 day after application.
# [3] = system: Puccinia recondita f. sp. tritici; experiment: Puccinia recondita f. sp. tritici / wheat / leaf disc curative (brown rust)
# Experimental: Puccinia recondita f. sp. tritici/Wheat/Leaf Disc Curative (Brown Rust) Wheat leaf segments cv. Kanzler are placed on agar in multiwell plates (24-well format). The leaf segments are inoculated with a spore suspension of the fungus. Plates were stored in darkness at 19° C. and 75% rh. The formulated test compound diluted in water was applied 1 day after inoculation.
SMILES,pest or weed control at 200 ppm [1],pest or weed control at 200 ppm [2],pest or weed control at 200 ppm [3]
CCN(C)/C=N/c1cc(Br)c(OC(C)c2cc(F)c(F)c(F)c2)nc1C (stereo not shown) [Q.318],≥ 50%,≥ 50%,≥ 50%
CCN(C)/C=N/c1cc(Br)c(OC2CCC3(CC2)NC(=O)NC3=O)nc1C (stereo not shown) [Q.072],≥ 50%,≥ 50%,≥ 50%
CCC(Oc1ccc(/N=C/N(C)CC)c(C)n1)c1cc(C)cc(C)c1 (stereo not shown) [Q.359],≥ 50%,≥ 50%,≥ 50%
CCN(C)/C=N/c1cc(Br)c(OCc2cc(C(F)(F)F)cc(C(F)(F)F)c2)nc1C [Q.152],≥ 50%,≥ 50%,≥ 50%
CCN(C)/C=N/c1cc(Br)c(OC2CCCc3ccc(F)cc32)nc1C (stereo not shown) [Q.048],≥ 50%,≥ 50%,≥ 50%
CCN(C)/C=N/c1cc(Br)c(OCC[Si](CC)(CC)CC)nc1C [Q.274],≥ 50%,≥ 50%,≥ 50%
CCN(C)/C=N/c1cc(Br)c(OC(C)c2ccc3c(c2)CCC3)nc1C (stereo not shown) [Q.239],≥ 50%,≥ 50%,≥ 50%
CCN(C)/C=N/c1cc(Br)c(OC2CCCCC2C)nc1C (stereo not shown) [Q.084],≥ 50%,≥ 50%,≥ 50%
CCN(C)/C=N/c1cc(C(C)C)c(OC2CCC(C(C)C)CC2)nc1C (stereo not shown) [Q.343],≥ 50%,≥ 50%,
CCN(C)/C=N/c1ccc(OCCc2ccccc2C)nc1C [Q.350],≥ 50%,≥ 50%,≥ 50%
CCN(C)/C=N/c1cc(Br)c(OCCCC(O)COC)nc1C (stereo not shown) [Q.036],≥ 50%,≥ 50%,≥ 50%
CCN(C)/C=N/c1cc(Br)c(OCc2ccccc2C(C)C)nc1C [Q.306],≥ 50%,≥ 50%,≥ 50%
CCN(C)/C=N/c1cc(Br)c(OC(C)c2cc(Cl)cc(Cl)c2)nc1C (stereo not shown) [Q.205],≥ 50%,≥ 50%,≥ 50%
CCN(C)/C=N/c1cc(Br)c(OC(C)c2ccccc2C(F)F)nc1C (stereo not shown) [Q.290],≥ 50%,≥ 50%,≥ 50%
CC#Cc1cc(/N=C/N(C)CC)c(C)nc1OC(C)c1cc(F)cc(F)c1 (stereo not shown) [Q.230],≥ 50%,≥ 50%,≥ 50%
CCN(C)/C=N/c1cc(-c2ccccc2)c(OC(C)c2cc(F)cc(F)c2)nc1C (stereo not shown) [Q.263],≥ 50%,≥ 50%,≥ 50%
CCN(C)/C=N/c1cc(Br)c(OC2CCCC3CCCCC32)nc1C (stereo not shown) [Q.049],≥ 50%,≥ 50%,≥ 50%
CCN(C)/C=N/c1cc(Br)c(OC2Cc3ccc(-c4ccccc4)cc3C2)nc1C (stereo not shown) [Q.142],≥ 50%,≥ 50%,
CCN(C)/C=N/c1cc(Br)c(OC2C=CC(=O)CC2)nc1C (stereo not shown) [Q.281],≥ 50%,≥ 50%,≥ 50%
CCN(C)/C=N/c1cc(Br)c(OCc2snc(-c3ccccc3)c2Br)nc1C [Q.108],≥ 50%,≥ 50%,
CCN(C)/C=N/c1cc(Br)c(OC2C(C)CCCC2C)nc1C (stereo not shown) [Q.094],≥ 50%,≥ 50%,≥ 50%
CCN(C)/C=N/c1cc(Br)c(OCCCC2CCCCC2)nc1C [Q.017],≥ 50%,≥ 50%,
CCC(Oc1ccc(/N=C/N(C)C(C)C)c(C)n1)c1ccccc1 (stereo not shown) [Q.348],,≥ 50%,≥ 50%
CCCc1ccc(-c2cc(/N=C/N(C)CC)c(C)nc2OC(C)c2cc(F)cc(F)c2)cc1 (stereo not shown) [Q.267],≥ 50%,≥ 50%,
CCN(C)/C=N/c1cc(Br)c(OC2CCNCC2)nc1C [Q.159],,≥ 50%,≥ 50%
CCN(C)/C=N/c1cc(Br)c(OC(C)C[Si](C)(C)C)nc1C (stereo not shown) [Q.272],≥ 50%,≥ 50%,

# From patent US9326513B2, “Fungicidal compositions” (Syngenta Participations AG, priority 2011, dated 2016)
